Marks after values point to notes of the source that are not given here.
What was measured:
Format in all cases: in vivo
Details in all cases: 100 = 100% disease control, 0 = no control
Septoria tritici = assay: Test G: wheat leaf blotch on wheat seedlings, sprayed the day before inoculation, visual disease rating
Outline: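 Disease was rated visually after Septoria tritici inoculation, 48 h saturated incubation at 24°C and 19 days in a 20°C growth chamber. Inoculation followed one day after run-off spraying of seedlings with compound at 200 ppm (≈500 g/ha) or, where marked, 40 ppm, formulated in acetone/water with surfactant.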

[1] = system: Puccinia recondita f. sp. tritici; assay: Test I: wheat leaf rust on wheat seedlings, sprayed the day before inoculation, visual disease rating
Outline: (§1)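 200 ppm run-off spray (500 g/ha equivalent); * = 40 ppm. Vehicle: acetone/water 50/50, 250 ppm Trem® 014.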

Alternaria solani = assay: Test D: tomato early blight, sprayed the day before inoculation, visual disease rating
Outline: as §1

Botrytis cinerea = assay: Test C: tomato Botrytis on tomato seedlings, sprayed the day before inoculation, visual disease rating
Outline: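 Tomato seedlings were sprayed until run-off with test suspensions in acetone/water (50/50) carrying 250 ppm polyhydric alcohol ester surfactant. Standard dose was 200 ppm, with 40 ppm for marked entries.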

[2] = system: Erysiphe graminis f. sp. tritici; assay: Test J: wheat powdery mildew on wheat seedlings, sprayed the day before inoculation, visual disease rating
Outline: as §1

Septoria nodorum = assay: Test F: wheat glume blotch on wheat seedlings, sprayed the day before inoculation, visual disease rating
Outline: as §1

With Cc1nc(C)n(-c2ccc(Cl)cc2)c1-c1c(F)cccc1F [compound 151] the “Test G disease control rating” value (Septoria tritici; 40 ppm (marked *)) was 99* %, the “Test I disease control rating” value ([1]; 40 ppm (marked *)) was 89* % and the “Test D disease control rating” value (Alternaria solani; 40 ppm (marked *)) was 100* %. For the same compound, the “Test C disease control rating” value (Botrytis cinerea; 40 ppm (marked *)) was 97* %, the “Test J disease control rating” value ([2]; 40 ppm (marked *)) was 96* % and the “Test F disease control rating” value (Septoria nodorum; 40 ppm (marked *)) was 69* %.

In the case of Fc1ccc(-n2c(Br)nc(Cl)c2-c2c(F)cc(F)cc2F)cc1 [compound 152], the “Test G disease control rating” value (Septoria tritici; 200 ppm) is reported as 96%, the “Test I disease control rating” value ([1]; 200 ppm) is reported as 89% and the “Test D disease control rating” value (Alternaria solani; 200 ppm) is reported as 99%. The “Test C disease control rating” value (Botrytis cinerea; 200 ppm) was 99%, the “Test J disease control rating” value ([2]; 200 ppm) was 99% and the “Test F disease control rating” value (Septoria nodorum; 200 ppm) was 69%.

For Cc1ccc(-n2c(Br)nc(Cl)c2-c2c(F)cc(F)cc2F)cc1 [compound 153], the “Test G disease control rating” value (Septoria tritici; 200 ppm) was 96%, the “Test I disease control rating” value ([1]; 200 ppm) was 99% and the “Test D disease control rating” value (Alternaria solani; 200 ppm) was 100%. For the same compound, the “Test C disease control rating” value (Botrytis cinerea; 200 ppm) was 98%, the “Test J disease control rating” value ([2]; 200 ppm) was 100% and the “Test F disease control rating” value (Septoria nodorum; 200 ppm) was 69%.

With Cc1ccc(-n2c(Cl)nc(Cl)c2-c2c(F)cc(F)cc2F)cc1 [compound 154] the “Test G disease control rating” value (Septoria tritici; 200 ppm) was 93%, the “Test I disease control rating” value ([1]; 200 ppm) was 86% and the “Test D disease control rating” value (Alternaria solani; 200 ppm) was 100%. The “Test C disease control rating” value (Botrytis cinerea; 200 ppm) was 99%, the “Test J disease control rating” value ([2]; 200 ppm) was 99% and the “Test F disease control rating” value (Septoria nodorum; 200 ppm) was 0%.

In the case of Cc1ccc(-n2c(C)nc(Cl)c2-c2c(F)ccc(F)c2F)cc1 [compound 155], the “Test G disease control rating” value (Septoria tritici; 200 ppm) is reported as 95%, the “Test I disease control rating” value ([1]; 200 ppm) is reported as 99% and the “Test D disease control rating” value (Alternaria solani; 200 ppm) is reported as 100%. For the same compound, the “Test C disease control rating” value (Botrytis cinerea; 200 ppm) was 99%, the “Test J disease control rating” value ([2]; 200 ppm) was 100% and the “Test F disease control rating” value (Septoria nodorum; 200 ppm) was 87%.

With CCOc1cc(F)c(-c2c(Cl)nc(C)n2-c2ccc(Cl)cc2)c(F)c1 [compound 156] the “Test G disease control rating” value (Septoria tritici; 40 ppm (marked *)) was 97* %, the “Test I disease control rating” value ([1]; 40 ppm (marked *)) was 97* % and the “Test D disease control rating” value (Alternaria solani; 40 ppm (marked *)) was 100* %. For the same compound, the “Test C disease control rating” value (Botrytis cinerea; 40 ppm (marked *)) was 98* %, the “Test J disease control rating” value ([2]; 40 ppm (marked *)) was 99* % and the “Test F disease control rating” value (Septoria nodorum; 40 ppm (marked *)) was 99* %.

In the case of Cc1nc(Cl)c(-c2c(F)ccc(F)c2F)n1-c1ccc(Cl)c(F)c1 [compound 157], the “Test G disease control rating” value (Septoria tritici; 200 ppm) is reported as 97%, the “Test I disease control rating” value ([1]; 200 ppm) is reported as 100% and the “Test D disease control rating” value (Alternaria solani; 200 ppm) is reported as 99%. For the same compound, the “Test C disease control rating” value (Botrytis cinerea; 200 ppm) was 97%, the “Test J disease control rating” value ([2]; 200 ppm) was 100% and the “Test F disease control rating” value (Septoria nodorum; 200 ppm) was 98%.

COc1cc(F)c(-c2c(Cl)nc(C)n2-c2ccc(F)cc2)c(F)c1 [compound 158] was tested, and the “Test G disease control rating” value (Septoria tritici; 200 ppm) was 97%, the “Test I disease control rating” value ([1]; 200 ppm) was 100% and the “Test D disease control rating” value (Alternaria solani; 200 ppm) was 100%. The “Test C disease control rating” value (Botrytis cinerea; 200 ppm) was 99%, the “Test J disease control rating” value ([2]; 200 ppm) was 100% and the “Test F disease control rating” value (Septoria nodorum; 200 ppm) was 96%.

COc1cc(F)c(-c2c(Cl)nc(C)n2-c2ccc(C)cc2)c(F)c1 [compound 159] was tested, and the “Test G disease control rating” value (Septoria tritici; 200 ppm) was 97%, the “Test I disease control rating” value ([1]; 200 ppm) was 100% and the “Test D disease control rating” value (Alternaria solani; 200 ppm) was 100%. The “Test C disease control rating” value (Botrytis cinerea; 200 ppm) was 99%, the “Test J disease control rating” value ([2]; 200 ppm) was 100% and the “Test F disease control rating” value (Septoria nodorum; 200 ppm) was 99%.

In the case of Fc1ccc(-n2cnc(Cl)c2-c2c(F)cccc2F)cc1F [compound 160], the “Test G disease control rating” value (Septoria tritici; 200 ppm) is reported as 93%, the “Test I disease control rating” value ([1]; 200 ppm) is reported as 28% and the “Test D disease control rating” value (Alternaria solani; 200 ppm) is reported as 93%. The “Test C disease control rating” value (Botrytis cinerea; 200 ppm) was 91%, the “Test J disease control rating” value ([2]; 200 ppm) was 98% and the “Test F disease control rating” value (Septoria nodorum; 200 ppm) was 0%.

For Cc1ccc(-n2cnc(Cl)c2-c2c(F)cccc2F)cc1F [compound 161], the “Test G disease control rating” value (Septoria tritici; 200 ppm) was 1%, the “Test I disease control rating” value ([1]; 200 ppm) was 80% and the “Test D disease control rating” value (Alternaria solani; 200 ppm) was 71%. The “Test C disease control rating” value (Botrytis cinerea; 200 ppm) was 99%, the “Test J disease control rating” value ([2]; 200 ppm) was 100% and the “Test F disease control rating” value (Septoria nodorum; 200 ppm) was 0%.

With Fc1cccc(F)c1-n1c(Br)nc(Br)c1-c1ccc(Cl)cc1 [compound 162] the “Test G disease control rating” value (Septoria tritici; 40 ppm (marked *)) was 93* %, the “Test I disease control rating” value ([1]; 40 ppm (marked *)) was 23* % and the “Test D disease control rating” value (Alternaria solani; 40 ppm (marked *)) was 97* %. The “Test C disease control rating” value (Botrytis cinerea; 40 ppm (marked *)) was 88* %, the “Test J disease control rating” value ([2]; 40 ppm (marked *)) was 94* % and the “Test F disease control rating” value (Septoria nodorum; 40 ppm (marked *)) was 0* %.

For Fc1cccc(F)c1-n1cnc(Cl)c1-c1ccc(Cl)cc1 [compound 163], the “Test G disease control rating” value (Septoria tritici; 40 ppm (marked *)) was 10* %, the “Test I disease control rating” value ([1]; 40 ppm (marked *)) was 0* % and the “Test D disease control rating” value (Alternaria solani; 40 ppm (marked *)) was 0* %. The “Test C disease control rating” value (Botrytis cinerea; 40 ppm (marked *)) was 0* %, the “Test J disease control rating” value ([2]; 40 ppm (marked *)) was 0* % and the “Test F disease control rating” value (Septoria nodorum; 40 ppm (marked *)) was 0* %.

Fc1cccc(F)c1-n1c(Br)nc(Cl)c1-c1ccc(Cl)cc1 [compound 164] was tested, and the “Test G disease control rating” value (Septoria tritici; 40 ppm (marked *)) was 96* %, the “Test I disease control rating” value ([1]; 40 ppm (marked *)) was 19* % and the “Test D disease control rating” value (Alternaria solani; 40 ppm (marked *)) was 88* %. For the same compound, the “Test C disease control rating” value (Botrytis cinerea; 40 ppm (marked *)) was 91* %, the “Test J disease control rating” value ([2]; 40 ppm (marked *)) was 94* % and the “Test F disease control rating” value (Septoria nodorum; 40 ppm (marked *)) was 0* %.

For CCn1nc(Br)c(-c2c(F)cccc2F)c1-c1ccc(Cl)cc1 [compound 165], the “Test G disease control rating” value (Septoria tritici; 200 ppm) was 93%, the “Test I disease control rating” value ([1]; 200 ppm) was 27% and the “Test D disease control rating” value (Alternaria solani; 200 ppm) was 0%. For the same compound, the “Test C disease control rating” value (Botrytis cinerea; 200 ppm) was 0%, the “Test J disease control rating” value ([2]; 200 ppm) was 93% and the “Test F disease control rating” value (Septoria nodorum; 200 ppm) was 0%.

With Cn1nc(Br)c(-c2c(F)cc(F)cc2F)c1-c1ccc(Cl)cc1 [compound 166] the “Test G disease control rating” value (Septoria tritici; 200 ppm) was 96%, the “Test I disease control rating” value ([1]; 200 ppm) was 91% and the “Test D disease control rating” value (Alternaria solani; 200 ppm) was 97%. For the same compound, the “Test C disease control rating” value (Botrytis cinerea; 200 ppm) was 96%, the “Test J disease control rating” value ([2]; 200 ppm) was 100% and the “Test F disease control rating” value (Septoria nodorum; 200 ppm) was 40%.

For Cc1nc(Cl)c(-c2c(F)cc(F)cc2F)n1-c1ccc(F)cc1 [compound 167], the “Test G disease control rating” value (Septoria tritici; 40 ppm (marked *)) was 95* %, the “Test I disease control rating” value ([1]; 40 ppm (marked *)) was 0* % and the “Test D disease control rating” value (Alternaria solani; 40 ppm (marked *)) was 100* %. The “Test C disease control rating” value (Botrytis cinerea; 40 ppm (marked *)) was 99* %, the “Test J disease control rating” value ([2]; 40 ppm (marked *)) was 98* % and the “Test F disease control rating” value (Septoria nodorum; 40 ppm (marked *)) was 0* %.

With Cc1ccc(-n2c(C)nc(Cl)c2-c2c(F)cc(F)cc2F)cc1 [compound 168] the “Test G disease control rating” value (Septoria tritici; 200 ppm) was 98%, the “Test I disease control rating” value ([1]; 200 ppm) was 100% and the “Test D disease control rating” value (Alternaria solani; 200 ppm) was 99%. The “Test C disease control rating” value (Botrytis cinerea; 200 ppm) was 97%, the “Test J disease control rating” value ([2]; 200 ppm) was 100% and the “Test F disease control rating” value (Septoria nodorum; 200 ppm) was 84%.

Fc1ccc(-n2c(Br)nc(Cl)c2-c2c(F)cccc2F)cc1F [compound 169] was tested, and the “Test G disease control rating” value (Septoria tritici; 200 ppm) was 96%, the “Test I disease control rating” value ([1]; 200 ppm) was 88% and the “Test D disease control rating” value (Alternaria solani; 200 ppm) was 100%. For the same compound, the “Test C disease control rating” value (Botrytis cinerea; 200 ppm) was 99%, the “Test J disease control rating” value ([2]; 200 ppm) was 99% and the “Test F disease control rating” value (Septoria nodorum; 200 ppm) was 40%.

With Cc1ccc(-n2c(Br)nc(Cl)c2-c2c(F)cccc2F)cc1F [compound 170] the “Test G disease control rating” value (Septoria tritici; 200 ppm) was 95%, the “Test I disease control rating” value ([1]; 200 ppm) was 99% and the “Test D disease control rating” value (Alternaria solani; 200 ppm) was 98%. For the same compound, the “Test C disease control rating” value (Botrytis cinerea; 200 ppm) was 97%, the “Test J disease control rating” value ([2]; 200 ppm) was 99% and the “Test F disease control rating” value (Septoria nodorum; 200 ppm) was 0%.

For COc1cc(F)c(-c2c(Cl)nc(Br)n2-c2ccc(Cl)cc2)c(Cl)c1 [compound 171], the “Test G disease control rating” value (Septoria tritici; 200 ppm) was 98%, the “Test I disease control rating” value ([1]; 200 ppm) was 98% and the “Test D disease control rating” value (Alternaria solani; 200 ppm) was 100%. The “Test C disease control rating” value (Botrytis cinerea; 200 ppm) was 99%, the “Test J disease control rating” value ([2]; 200 ppm) was 99% and the “Test F disease control rating” value (Septoria nodorum; 200 ppm) was 100%.

COc1cc(F)c(-c2c(Cl)nc(C)n2-c2ccc(Cl)cc2)c(Cl)c1 [compound 172] was tested, and the “Test G disease control rating” value (Septoria tritici; 200 ppm) was 98%, the “Test I disease control rating” value ([1]; 200 ppm) was 99% and the “Test D disease control rating” value (Alternaria solani; 200 ppm) was 99%. For the same compound, the “Test C disease control rating” value (Botrytis cinerea; 200 ppm) was 99%, the “Test J disease control rating” value ([2]; 200 ppm) was 99% and the “Test F disease control rating” value (Septoria nodorum; 200 ppm) was 100%.

For COc1cc(F)c(-n2cnc(Br)c2-c2ccc(Cl)cc2)c(F)c1 [compound 173], the “Test G disease control rating” value (Septoria tritici; 40 ppm (marked *)) was 90* %, the “Test I disease control rating” value ([1]; 40 ppm (marked *)) was 41* % and the “Test D disease control rating” value (Alternaria solani; 40 ppm (marked *)) was 0* %. For the same compound, the “Test C disease control rating” value (Botrytis cinerea; 40 ppm (marked *)) was 98* %, the “Test J disease control rating” value ([2]; 40 ppm (marked *)) was 0* % and the “Test F disease control rating” value (Septoria nodorum; 40 ppm (marked *)) was 0* %.
